Experimental data taken from US20150315188A1, “COMPOUNDS AND METHODS FOR TREATMENT OF HYPERTENSION” (MEDIVATION TECHNOLOGIES, INC., priority 2012, published 2015).
Marks after values point to notes of the source that are not given here.

Columns and labels:
dog hepatocytes = test: Stability in the presence of dog hepatocytes; type: in vitro ADME, Beagle dog; conditions: dog hepatocytes, 5 μM, 37° C., average of duplicates; ^a = 0-120 minute time points
Procedure: (§1) Compounds of the invention were tested for stability in the presence of dog, rat and human hepatocytes over a 4 hour period by LC/MS/MS. The study was performed by Integrated Analytical Solutions, Berkeley, Calif.
(§2) Reference Standards and Solutions: Compounds of the invention were stored as powders at ambient temperature in a desiccator and protected from light. Reference stock solutions of Compound Nos. 50a, 50b, 79a, 82, 91a and 178d, as 20 mM in DMSO were prepared and subsequently diluted to 2 mM in MeOH to provide working stock solutions (WSS). Unused standard solutions were stored at −20° C.
(§3) Hepatocyte Preparation: Human (mixed gender), Beagle dog (male) and Sprague Dawley rat (male) cryopreserved hepatocytes were purchased from Life Technologies Corporation. Hepatocytes were removed from liquid nitrogen, quickly thawed in a 37° C. water bath and transferred to Hepatocyte Thawing/Plating Medium (Cryopreserved Hepatocyte Recovery Medium, CHRM, Life Technologies Inc.). The cells were pelleted by slow speed centrifugation (˜100×g, 6 min) and resuspended at a high cell density. Hepatocyte viability was determined by trypan blue exclusion. Hepatocyte incubation medium (Life Technologies, Inc.) was added to generate a cell density of 2.0×10^6 cells/mL.
(§4) Hepatocyte Incubations for Stability: The 2 mM WSS was diluted 1 in 200 in hepatocyte incubation medium (pH 7.4) to 10 μM. A solution containing control compounds was prepared similarly to contain 10 μM each of dextromethorphan and testosterone. The solutions of test compounds and controls at 10 μM in hepatocyte incubation medium were pre-incubated at 37° C. for 10 min. Aliquots (250 μL) of hepatocyte suspensions (at 2.0×10^6 cells/mL) were transferred to appropriate 48-well plates and pre-incubated at 37° C. for 10 minutes. Metabolism was initiated by adding 250 μL pre-incubated medium (containing test drug) to wells containing cells. A negative control reaction excluding hepatocytes was used to monitor aqueous stability and/or non-specific adsorption. The final reaction mixtures contained 5 μM of test or control compound and 1.0×10^6 cells/mL. All reactions were performed in duplicate and carried at 37° C. in an incubator. Dextromethorphan and testosterone were used as control drugs to verify hepatocyte activity.
(§5) Aliquots were removed from each metabolism reaction at 0, 0.5, 2 and 4 hours. The reactions were terminated by adding each aliquot to a vessel containing 2× volumes (80 μL) of Internal Standard Solution (acetonitrile containing 50 ng/mL 2-(2,8-dimethyl-3,4-dihydro-1H-pyrido[4,3-b]indol-5(2H)-yl)-1-(pyridin-4-yl)ethanol (ISS1), 50 ng/mL of 2-(2,8-dimethyl-3,4-dihydro-1H-pyrido[4,3-b]indol-5(2H)-yl)-1-(piperidin-1-yl)ethanone (ISS2) and 5 ng/mL diphenhydramine. Terminated reactions were centrifuged at 6000 g for 30 mins at 4° C. to remove the precipitated proteins and cell debris. Following centrifugation, 20 μL of each supernatant was transferred to a deep-well microplate and diluted with 5× volumes (100 μL) of 0.2% formic acid in water. Compound 178d samples were diluted with 5× volumes (100 μL) of 0.1% HFBA in water. Samples were analyzed by LC/MS/MS.
(§6) Calculation of Metabolism Parameters: Percent remaining was measured by dividing the analyte/IS peak area ratio at the designated sample time by the peak area ratio at time 0. ISS1 served as the IS for Compound No. 178d. ISS2 served as the IS for Compound nos. 50a, 50b, 79a, 82 and 91a. The metabolic half-life (T1/2) was calculated using all time points unless otherwise noted. The T1/2 values were calculated as 0.693/k, where k is the slope of the log analyte/internal standard peak area ratio versus time. Metabolism rate was calculated by dividing the starting concentration of substrate by the concentration of hepatocytes, then dividing by the T1/2 value.

human hepatocytes = test: Stability in the presence of human hepatocytes; type: in vitro ADME; conditions: human hepatocytes, 5 μM, 37° C., average of duplicates; ^a = 0-120 minute time points
Procedure: as §1, §2, §3, §4, §5, §6

rat hepatocytes = test: Stability in the presence of rat hepatocytes; type: in vitro ADME, Sprague Dawley rat; conditions: rat hepatocytes, 5 μM, 37° C., average of duplicates; ^a = 0-120 minute time points
Procedure: as §1, §2, §3, §4, §5, §6

Cc1cc2c3c(n(CC(C)(O)c4ccncc4)c2cc1Cl)CCN1CCCC31 (single isomer, unassigned) [50b]
T1/2 Dog (dog hepatocytes): 100^a min
T1/2 Human (human hepatocytes): 82^a min
T1/2 Rat (rat hepatocytes): >4 h
